Data from ChEMBL document CHEMBL1150468, “Sch 53823 and Sch 53825, novel fungal metabolites with phospholipase D inhibitory activity” (Bioorg Med Chem Lett, 1996).

experiment: In vitro inhibitory activity in the fMLP-stimulated phospholipase (PLD) assay

Row | IC50 [µM] | Structure (SMILES)
1 | 19 | Oc1c(Cl)ccc2c1[C@@H](O)[C@H]1O[C@H]1C21Oc2cccc3cccc(c23)O1
2 | 17 | CC(=O)Oc1cccc2c1[C@@H](OC(C)=O)[C@H]1O[C@H]1C21Oc2cccc3cccc(c23)O1
3 | 24 | Oc1cccc2c1[C@@H](O)[C@H]1O[C@H]1C21Oc2cccc3cccc(c23)O1
4 | > 50 | CC(=O)Oc1c(Cl)ccc2c1[C@@H](OC(C)=O)[C@H]1O[C@H]1C21Oc2cccc3cccc(c23)O1
